According to PubChem BioAssay (NCI):
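Assay format: 96-well plates, 48-hour exposure. TGI: total growth inhibition.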

How the values were obtained:
Assay in all cases: NCI tumour cell line growth inhibition, 48 h
[1] = system: T-47D breast
[2] = system: MOLT-4 leukemia
[3] = system: TK-10 renal
[4] = system: CCRF-CEM leukemia
[5] = system: HOP-92 NSCLC
[6] = system: UACC-62 melanoma
[7] = system: SK-MEL-2 melanoma
[8] = system: 786-0 renal
[9] = system: MDA-MB-435
[10] = system: M14 melanoma
[11] = system: KM12 colon
[12] = system: COLO 205 colon
[13] = system: OVCAR-3 ovarian
[14] = system: SR leukemia
[15] = system: SNB-75 CNS
[16] = system: CAKI-1 renal
[17] = system: NCI/ADR-RES ovarian
[18] = system: HCC-2998 colon
[19] = system: DU-145 prostate
[20] = system: EKVX NSCLC
[21] = system: SK-MEL-28 melanoma
[22] = system: NCI-H226 lung
[23] = system: HT29 colon
[24] = system: MDA-MB-231 breast
[25] = system: HL-60(TB) leukemia
[26] = system: SNB-19 CNS
[27] = system: SK-OV-3 ovarian
[28] = system: NCI-H522 lung
[29] = system: RPMI-8226 leukemia
[30] = system: ACHN renal
[31] = system: LOX IMVI melanoma
[32] = system: MCF7 breast
[33] = system: MDA-N
[34] = system: OVCAR-8 ovarian
[35] = system: A549 NSCLC
[36] = system: PC-3 prostate
[37] = system: MALME-3M melanoma
[38] = system: SN12C renal
[39] = system: BT-549 breast
[40] = system: OVCAR-5 ovarian
[41] = system: SK-MEL-5 melanoma
[42] = system: SF-539 CNS
[43] = system: SF-295 CNS
[44] = system: SF-268 CNS
[45] = system: UO-31 renal
[46] = system: A498 renal
[47] = system: OVCAR-4 ovarian
[48] = system: HCT-15 colon
[49] = system: K-562 leukemia
[50] = system: HCT-116 colon
[51] = system: U251 CNS
[52] = system: NCI-H460 lung
[53] = system: SW-620 colon
[54] = system: HS 578T breast
[55] = system: IGROV1 ovarian
[56] = system: HOP-62 NSCLC
[57] = system: NCI-H23 lung
[58] = system: UACC-257 melanoma
[59] = system: RXF 393 renal

COc1ccc(NC(=S)N/N=C/c2cccc(C)n2)cc1
TGI [1]: > 100 µM | TGI [2]: > 29.3 µM | TGI [3]: > 100 µM | TGI [4]: > 54 µM | TGI [5]: > 85.5 µM | TGI [6]: 10.7 µM | TGI [7]: > 100 µM | TGI [8]: > 65 µM | TGI [9]: > 100 µM | TGI [10]: 11.2 µM | TGI [11]: > 100 µM | TGI [12]: > 39.6 µM | TGI [13]: > 100 µM | TGI [14]: > 37.5 µM | TGI [15]: 81.8 µM | TGI [16]: > 79 µM | TGI [17]: > 26.6 µM | TGI [18]: > 100 µM | TGI [19]: > 67.1 µM | TGI [20]: > 100 µM | TGI [21]: > 100 µM | TGI [22]: 53.8 µM | TGI [23]: 14.9 µM | TGI [24]: > 100 µM | TGI [25]: 6.06 µM | TGI [26]: > 100 µM | TGI [27]: 46.2 µM | TGI [28]: 5.73 µM | TGI [29]: 62.1 µM | TGI [30]: 19.5 µM | TGI [31]: 33.2 µM | TGI [32]: > 100 µM | TGI [33]: > 100 µM | TGI [34]: > 35.4 µM | TGI [35]: > 100 µM | TGI [36]: > 100 µM | TGI [37]: > 100 µM | TGI [38]: > 100 µM | TGI [39]: > 71 µM | TGI [40]: > 100 µM | TGI [41]: > 36.5 µM | TGI [42]: 34.2 µM | TGI [43]: 40.3 µM | TGI [44]: > 66.9 µM | TGI [45]: 18 µM | TGI [46]: 90 µM | TGI [47]: > 100 µM | TGI [48]: > 100 µM | TGI [49]: > 100 µM | TGI [50]: > 100 µM | TGI [51]: 24.6 µM | TGI [52]: > 42.9 µM | TGI [53]: > 100 µM | TGI [54]: > 100 µM | TGI [55]: 24.1 µM | TGI [56]: 38.4 µM | TGI [57]: > 100 µM

COC(OC)(c1ccccc1)C(Br)Br
TGI [1]: > 100 µM | TGI [2]: 74.2 µM | TGI [4]: 42.6 µM | TGI [6]: > 100 µM | TGI [7]: > 100 µM | TGI [8]: 69.4 µM | TGI [9]: > 100 µM | TGI [10]: 37.8 µM | TGI [11]: > 100 µM | TGI [12]: 39.2 µM | TGI [13]: > 100 µM | TGI [14]: 70.6 µM | TGI [15]: > 100 µM | TGI [16]: 48.5 µM | TGI [17]: > 100 µM | TGI [18]: > 100 µM | TGI [19]: > 100 µM | TGI [20]: > 100 µM | TGI [21]: > 100 µM | TGI [22]: > 100 µM | TGI [23]: > 100 µM | TGI [24]: > 100 µM | TGI [25]: > 100 µM | TGI [26]: > 100 µM | TGI [27]: > 100 µM | TGI [28]: 33 µM | TGI [29]: > 100 µM | TGI [30]: > 100 µM | TGI [31]: > 100 µM | TGI [32]: > 100 µM | TGI [33]: > 100 µM | TGI [34]: > 100 µM | TGI [58]: > 100 µM | TGI [35]: > 100 µM | TGI [36]: > 100 µM | TGI [37]: 43.8 µM | TGI [38]: > 100 µM | TGI [39]: > 100 µM | TGI [40]: > 100 µM | TGI [41]: > 100 µM | TGI [43]: > 100 µM | TGI [44]: > 100 µM | TGI [45]: > 100 µM | TGI [46]: > 100 µM | TGI [48]: 42.4 µM | TGI [49]: 71.6 µM | TGI [50]: 37.2 µM | TGI [51]: > 100 µM | TGI [52]: > 100 µM | TGI [53]: 34.5 µM | TGI [54]: > 100 µM | TGI [55]: > 100 µM | TGI [56]: > 100 µM | TGI [57]: > 100 µM

O=C(N/S(=N/S(=O)(=O)c1ccc(Br)cc1)C(Cl)(Cl)Cl)c1ccccc1 (stereo unspecified)
TGI [1]: > 100 µM | TGI [2]: > 100 µM | TGI [3]: > 100 µM | TGI [4]: > 100 µM | TGI [5]: 82 µM | TGI [6]: > 100 µM | TGI [7]: > 100 µM | TGI [8]: > 100 µM | TGI [9]: > 100 µM | TGI [59]: > 100 µM | TGI [10]: > 100 µM | TGI [11]: > 100 µM | TGI [12]: > 100 µM | TGI [13]: > 100 µM | TGI [14]: > 100 µM | TGI [15]: > 100 µM | TGI [17]: > 100 µM | TGI [19]: > 100 µM | TGI [20]: > 100 µM | TGI [21]: > 100 µM | TGI [22]: > 100 µM | TGI [23]: > 100 µM | TGI [24]: > 100 µM | TGI [26]: > 100 µM | TGI [27]: > 100 µM | TGI [29]: > 100 µM | TGI [30]: > 100 µM | TGI [31]: > 100 µM | TGI [32]: > 100 µM | TGI [33]: > 100 µM | TGI [34]: > 100 µM | TGI [58]: > 100 µM | TGI [35]: > 100 µM | TGI [36]: > 100 µM | TGI [37]: > 100 µM | TGI [38]: > 100 µM | TGI [39]: > 100 µM | TGI [40]: > 100 µM | TGI [41]: > 100 µM | TGI [42]: > 100 µM | TGI [43]: > 100 µM | TGI [44]: > 100 µM | TGI [45]: > 100 µM | TGI [46]: > 100 µM | TGI [47]: > 100 µM | TGI [48]: > 100 µM | TGI [49]: > 100 µM | TGI [50]: > 100 µM | TGI [51]: > 100 µM | TGI [52]: > 100 µM | TGI [53]: > 100 µM | TGI [54]: > 100 µM | TGI [55]: > 100 µM | TGI [56]: > 100 µM | TGI [57]: > 100 µM
